Experimental data: PMC5218480 (PLoS ONE, 2017)

System: MV-4-11 cells
Assay: Gene expression microarray analysis (Affymetrix PrimeView) and GSEA
Assay type: cell-based, human
Design: RFU PODN (11730768_x_at) / Fold change /veh PODN (11730768_x_at) / RFU LINC00158 (11744669_a_at) / Fold change /veh LINC00158 (11744669_a_at) / RFU DUSP10 (11751237_a_at) / Fold change /veh DUSP10 (11751237_a_at) / RFU ID3 (11757404_x_at) / Fold change /veh ID3 (11757404_x_at) / RFU PLEKHG5 (11737974_s_at) / Fold change /veh PLEKHG5 (11737974_s_at) / RFU LRRC4B (11730491_at) / Fold change /veh LRRC4B (11730491_at) / RFU GIMAP4 (11747438_a_at) / Fold change /veh GIMAP4 (11747438_a_at) / RFU KRT8 (11758183_x_at) / Fold change /veh KRT8 (11758183_x_at) / RFU CNN1 (11734310_a_at) / Fold change /veh CNN1 (11734310_a_at) / RFU VPS37D (11726825_at) / Fold change /veh VPS37D (11726825_at) / RFU C10orf10 (11716522_x_at) / Fold change /veh C10orf10 (11716522_x_at) / RFU KIR2DL2 /// KIR2DL4 /// KIR2DL5A /// KIR2DL5B /// KIR2DS1 /// KIR2DS2 /// KIR2DS3 /// KIR2DS4 /// KIR3DL3 /// KIR3DL3 /// KIR3DS1 (11738374_at) / Fold change /veh KIR2DL2 /// KIR2DL4 /// KIR2DL5A /// KIR2DL5B /// KIR2DS1 /// KIR2DS2 /// KIR2DS3 /// KIR2DS4 /// KIR3DL3 /// KIR3DL3 /// KIR3DS1 (11738374_at) / RFU C1QL1 (11718748_at) / Fold change /veh C1QL1 (11718748_at) / RFU TMPRSS4 (11747572_a_at) / Fold change /veh TMPRSS4 (11747572_a_at) / RFU HAMP (11756126_x_at) / Fold change /veh HAMP (11756126_x_at) / RFU RNFT2 (11725882_a_at) / Fold change /veh RNFT2 (11725882_a_at) / RFU NR4A2 (11747474_a_at) / Fold change /veh NR4A2 (11747474_a_at) / RFU ABCC12 (11746883_a_at) / Fold change /veh ABCC12 (11746883_a_at) / RFU TMEM136 (11760407_x_at) / Fold change /veh TMEM136 (11760407_x_at) / RFU CLDN22 /// WWC2 (11732394_at) / Fold change /veh CLDN22 /// WWC2 (11732394_at) / RFU HLA-DPB1 (11760878_x_at) / Fold change /veh HLA-DPB1 (11760878_x_at) / RFU SPINT1 (11716480_a_at) / Fold change /veh SPINT1 (11716480_a_at) / RFU GAP43 (11754022_s_at) / Fold change /veh GAP43 (11754022_s_at) / RFU A4GNT (11735810_at) / Fold change /veh A4GNT (11735810_at) / RFU PRB3 (11715151_x_at) / Fold change /veh PRB3 (11715151_x_at) / RFU TUBB4B (11761932_at) / Fold change /veh TUBB4B (11761932_at) / RFU CAPN14 (11732068_a_at) / Fold change /veh CAPN14 (11732068_a_at) / RFU TMCC2 (11721928_a_at) / Fold change /veh TMCC2 (11721928_a_at) / RFU IRGQ (11745062_a_at) / Fold change /veh IRGQ (11745062_a_at) / RFU FAM174B (11720279_a_at) / Fold change /veh FAM174B (11720279_a_at) / RFU TMPRSS4 (11748680_a_at) / Fold change /veh TMPRSS4 (11748680_a_at) / RFU FAM212B (11763350_a_at) / Fold change /veh FAM212B (11763350_a_at) / RFU PLEKHG5 (11743358_a_at) / Fold change /veh PLEKHG5 (11743358_a_at) / RFU ZSCAN30 (11745921_a_at) / Fold change /veh ZSCAN30 (11745921_a_at) / RFU CMKLR1 (11741424_a_at) / Fold change /veh CMKLR1 (11741424_a_at) / RFU LOC101060620 /// MAPK8IP1 (11723275_at) / Fold change /veh LOC101060620 /// MAPK8IP1 (11723275_at) / RFU SPTSSB (11747773_x_at) / Fold change /veh SPTSSB (11747773_x_at) / RFU PRSS12 (11739890_at) / Fold change /veh PRSS12 (11739890_at) / RFU BIN1 (11741810_x_at) / Fold change /veh BIN1 (11741810_x_at) / RFU WNT11 (11732464_a_at) / Fold change /veh WNT11 (11732464_a_at) / RFU C10orf10 (11716521_a_at) / Fold change /veh C10orf10 (11716521_a_at) / RFU C5orf56 (11738089_at) / Fold change /veh C5orf56 (11738089_at) / RFU CYB561 (11721691_x_at) / Fold change /veh CYB561 (11721691_x_at) / RFU ANKRD19P (11752326_a_at) / Fold change /veh ANKRD19P (11752326_a_at) / RFU OR2T12 /// OR2T33 /// OR2T8 (11738714_s_at) / Fold change /veh OR2T12 /// OR2T33 /// OR2T8 (11738714_s_at) / RFU VCAN (11748164_a_at) / Fold change /veh VCAN (11748164_a_at) / RFU JSRP1 (11732532_at) / Fold change /veh JSRP1 (11732532_at) / RFU KRTAP10-11 (11738290_x_at) / Fold change /veh KRTAP10-11 (11738290_x_at) / RFU MYO3A (11730013_a_at) / Fold change /veh MYO3A (11730013_a_at) / RFU EBF3 (11725865_a_at) / Fold change /veh EBF3 (11725865_a_at) / RFU CAMK2N1 (11719241_x_at) / Fold change /veh CAMK2N1 (11719241_x_at) / RFU C5orf56 (11738088_a_at) / Fold change /veh C5orf56 (11738088_a_at) / RFU OLFML3 (11715873_a_at) / Fold change /veh OLFML3 (11715873_a_at) / RFU LOC100653217 /// NTM (11731650_a_at) / Fold change /veh LOC100653217 /// NTM (11731650_a_at) / RFU MAPK11 (11762145_a_at) / Fold change /veh MAPK11 (11762145_a_at) / RFU FIZ1 (11724087_x_at) / Fold change /veh FIZ1 (11724087_x_at) / RFU OASL (11726364_x_at) / Fold change /veh OASL (11726364_x_at) / RFU SOX15 (11748057_x_at) / Fold change /veh SOX15 (11748057_x_at) / RFU CD79A (11719716_a_at) / Fold change /veh CD79A (11719716_a_at) / RFU HIST1H1D (11736915_at) / Fold change /veh HIST1H1D (11736915_at) / RFU CASKIN2 (11723855_a_at) / Fold change /veh CASKIN2 (11723855_a_at) / RFU LOC730098 (11760151_x_at) / Fold change /veh LOC730098 (11760151_x_at) / RFU OR4N2 (11742367_at) / Fold change /veh OR4N2 (11742367_at) / RFU PRRT2 (11749266_a_at) / Fold change /veh PRRT2 (11749266_a_at) / RFU SNX32 (11753110_a_at) / Fold change /veh SNX32 (11753110_a_at) / RFU CDHR5 (11726645_a_at) / Fold change /veh CDHR5 (11726645_a_at) / RFU RCAN1 (11760418_a_at) / Fold change /veh RCAN1 (11760418_a_at) / RFU FAM167A (11723789_a_at) / Fold change /veh FAM167A (11723789_a_at) / RFU FAM26E (11764081_at) / Fold change /veh FAM26E (11764081_at) / RFU ISYNA1 (11749810_s_at) / Fold change /veh ISYNA1 (11749810_s_at) / RFU ACY1 (11761880_at) / Fold change /veh ACY1 (11761880_at) / RFU 11764098_at / Fold change /veh 11764098_at / RFU SAMD14 (11745864_x_at) / Fold change /veh SAMD14 (11745864_x_at) / RFU NPB (11741838_a_at) / Fold change /veh NPB (11741838_a_at) / RFU TMPRSS6 (11731388_a_at) / Fold change /veh TMPRSS6 (11731388_a_at) / RFU KRTAP10-2 (11738614_at) / Fold change /veh KRTAP10-2 (11738614_at) / RFU ARHGAP8 /// PRR5-ARHGAP8 (11727945_x_at) / Fold change /veh ARHGAP8 /// PRR5-ARHGAP8 (11727945_x_at) / RFU KRTAP5-7 /// NADSYN1 (11734609_at) / Fold change /veh KRTAP5-7 /// NADSYN1 (11734609_at) / RFU RASL12 (11751679_a_at) / Fold change /veh RASL12 (11751679_a_at) / RFU CDKN2B (11736163_a_at) / Fold change /veh CDKN2B (11736163_a_at) / RFU PRF1 (11729649_at) / Fold change /veh PRF1 (11729649_at) / RFU, ZNF638 /// ZNF638-IT1 / Fold change vs veh, ZNF638 /// ZNF638-IT1 / RFU, PANK3 / Fold change vs veh, PANK3 / RFU, SH3YL1 / Fold change vs veh, SH3YL1 / RFU, ZEB2 / Fold change vs veh, ZEB2 / RFU, NRIP1 / Fold change vs veh, NRIP1 / RFU, PTTG1IP / Fold change vs veh, PTTG1IP / RFU, CAPN2 / Fold change vs veh, CAPN2 / RFU, MED14 / Fold change vs veh, MED14 / RFU, SNORA58 / Fold change vs veh, SNORA58 / RFU, C1orf63 / Fold change vs veh, C1orf63 / RFU, LRRFIP1 / Fold change vs veh, LRRFIP1 / RFU, NDUFAF7 / Fold change vs veh, NDUFAF7 / RFU, SLC12A2 / Fold change vs veh, SLC12A2 / RFU, IBTK / Fold change vs veh, IBTK / RFU, ESF1 / Fold change vs veh, ESF1 / Fold change vs veh, TMEM50B / RFU, TAOK1 / Fold change vs veh, TAOK1 / RFU, ACBD3 / Fold change vs veh, ACBD3 / RFU, TMA16 / Fold change vs veh, TMA16 / RFU, RWDD3 / Fold change vs veh, RWDD3 / RFU, BCAT1 / Fold change vs veh, BCAT1 / RFU, EDEM3 / Fold change vs veh, EDEM3 / RFU, TMEM33 / Fold change vs veh, TMEM33 / RFU, WDR75 / Fold change vs veh, WDR75 / RFU, AHCTF1 / Fold change vs veh, AHCTF1 / RFU, TFRC / Fold change vs veh, TFRC / RFU, ZDHHC17 / Fold change vs veh, ZDHHC17 / RFU, NOM1 / Fold change vs veh, NOM1 / RFU, ARL8B / Fold change vs veh, ARL8B / RFU, ZBTB11 / Fold change vs veh, ZBTB11 / RFU, TAMM41 / Fold change vs veh, TAMM41 / RFU, KIAA1704 /// LOC100996395 / Fold change vs veh, KIAA1704 /// LOC100996395 / RFU, ING1 / Fold change vs veh, ING1 / RFU, TRMT61B / Fold change vs veh, TRMT61B / RFU, FUBP3 / Fold change vs veh, FUBP3 / RFU, TP53 / Fold change vs veh, TP53 / RFU, TNKS2 / Fold change vs veh, TNKS2 / RFU, ZFP14 / Fold change vs veh, ZFP14 / RFU, ACTR2 / Fold change vs veh, ACTR2 / RFU, PPP3R1 / Fold change vs veh, PPP3R1 / RFU, PIK3R1 / Fold change vs veh, PIK3R1 / RFU, HNRNPA1 / Fold change vs veh, HNRNPA1 / RFU, RNF170 / Fold change vs veh, RNF170 / RFU, ZNF28 / Fold change vs veh, ZNF28 / RFU, RNGTT / Fold change vs veh, RNGTT / RFU, OGT / Fold change vs veh, OGT / RFU, BRD1 / Fold change vs veh, BRD1 / RFU, MARS / Fold change vs veh, MARS / RFU, ZNF655 / Fold change vs veh, ZNF655 / RFU, FAHD1 / Fold change vs veh, FAHD1 / RFU, BDP1 / Fold change vs veh, BDP1 / RFU, LRRCC1 / Fold change vs veh, LRRCC1 / RFU, ARID1A / Fold change vs veh, ARID1A / RFU, ZNF146 / Fold change vs veh, ZNF146 / RFU, ZNF330 / Fold change vs veh, ZNF330 / RFU, GPN3 / Fold change vs veh, GPN3 / RFU, C9orf123 / Fold change vs veh, C9orf123 / RFU, N4BP2L2 / Fold change vs veh, N4BP2L2 / RFU, ARFIP1 / Fold change vs veh, ARFIP1 / RFU, FAM179B / Fold change vs veh, FAM179B / RFU, BCL10 / Fold change vs veh, BCL10 / RFU, UHRF1BP1L / Fold change vs veh, UHRF1BP1L / RFU, BET1 / Fold change vs veh, BET1 / RFU, CNOT2 / Fold change vs veh, CNOT2 / RFU, ZNF268 / Fold change vs veh, ZNF268 / Fold change vs veh, ZNF507 / RFU, DGCR2 / Fold change vs veh, DGCR2 / RFU, WDSUB1 / Fold change vs veh, WDSUB1 / Fold change vs veh, HSP90B1 /// MIR3652 / RFU, ADSS / Fold change vs veh, ADSS / RFU, GK / Fold change vs veh, GK / RFU, ZNF148 / Fold change vs veh, ZNF148 / RFU, TAF9 / Fold change vs veh, TAF9 / RFU, SLC1A5 / Fold change vs veh, SLC1A5 / RFU, SLMO2 / Fold change vs veh, SLMO2 / RFU, ABCC4 / Fold change vs veh, ABCC4 / RFU, LOC101060439 /// RAP1B / Fold change vs veh, LOC101060439 /// RAP1B / RFU, RFX7 / Fold change vs veh, RFX7 / RFU, GTPBP10 / Fold change vs veh, GTPBP10 / RFU, CNEP1R1 / Fold change vs veh, CNEP1R1 / RFU, BIVM-ERCC5 /// ERCC5 / Fold change vs veh, BIVM-ERCC5 /// ERCC5 / RFU, ILF3 / Fold change vs veh, ILF3 / RFU 11762660_at / Fold change /veh 11762660_at / RFU VCAN (11757783_s_at) / Fold change /veh VCAN (11757783_s_at) / RFU DDX43 (11728927_at) / Fold change /veh DDX43 (11728927_at) / RFU KRT8 (11758188_x_at) / Fold change /veh KRT8 (11758188_x_at) / RFU NKD1 (11759106_at) / Fold change /veh NKD1 (11759106_at) / RFU SRD5A1 (11742802_a_at) / Fold change /veh SRD5A1 (11742802_a_at) / RFU TPSAB1 /// TPSB2 (11721975_s_at) / Fold change /veh TPSAB1 /// TPSB2 (11721975_s_at) / RFU GSTM3 (11746129_a_at) / Fold change /veh GSTM3 (11746129_a_at) / RFU IL23R (11737362_x_at) / Fold change /veh IL23R (11737362_x_at) / RFU TMEM51 (11727254_a_at) / Fold change /veh TMEM51 (11727254_a_at) / RFU PIWIL2 (11732686_x_at) / Fold change /veh PIWIL2 (11732686_x_at) / RFU ORM1 (11744905_x_at) / Fold change /veh ORM1 (11744905_x_at) / RFU CCDC152 (11743942_at) / Fold change /veh CCDC152 (11743942_at) / RFU ECM1 (11717891_a_at) / Fold change /veh ECM1 (11717891_a_at) / RFU IL23R (11748794_a_at) / Fold change /veh IL23R (11748794_a_at) / RFU TNFAIP8L3 (11732012_x_at) / Fold change /veh TNFAIP8L3 (11732012_x_at) / RFU MBOAT4 (11741988_at) / Fold change /veh MBOAT4 (11741988_at) / RFU 11764193_at / Fold change /veh 11764193_at / RFU TMEM53 (11763286_at) / Fold change /veh TMEM53 (11763286_at) / RFU MAGEB2 (11727129_at) / Fold change /veh MAGEB2 (11727129_at) / RFU TMEM200A (11744735_a_at) / Fold change /veh TMEM200A (11744735_a_at) / RFU CCDC152 (11751479_a_at) / Fold change /veh CCDC152 (11751479_a_at) / RFU FAM211A (11726209_a_at) / Fold change /veh FAM211A (11726209_a_at) / RFU RGS16 (11746705_a_at) / Fold change /veh RGS16 (11746705_a_at) / RFU VCAN (11755009_s_at) / Fold change /veh VCAN (11755009_s_at) / RFU RHOB (11743442_s_at) / Fold change /veh RHOB (11743442_s_at) / RFU RGS16 (11720943_a_at) / Fold change /veh RGS16 (11720943_a_at) / RFU RGS16 (11720944_at) / Fold change /veh RGS16 (11720944_at) / RFU, VPS4B / Fold change vs veh, VPS4B / RFU, CREB1 / Fold change vs veh, CREB1 / RFU, DNAJC13 / Fold change vs veh, DNAJC13 / RFU, GNAQ / Fold change vs veh, GNAQ / RFU, CDK5R1 / Fold change vs veh, CDK5R1 / RFU, ZRANB3 / Fold change vs veh, ZRANB3 / RFU, CUL4A / Fold change vs veh, CUL4A / RFU, CCNY / Fold change vs veh, CCNY / RFU, UFL1 / Fold change vs veh, UFL1 / RFU, COG3 / Fold change vs veh, COG3 / RFU, DIAPH2 / Fold change vs veh, DIAPH2 / RFU, SKA2 / Fold change vs veh, SKA2 / RFU, AFF3 / Fold change vs veh, AFF3 / RFU, LMF1 / Fold change vs veh, LMF1 / RFU, IPO11 / Fold change vs veh, IPO11 / RFU, DFFB / Fold change vs veh, DFFB / RFU, FOXP1 / Fold change vs veh, FOXP1 / RFU, CARD8 / Fold change vs veh, CARD8 / RFU, STRN3 / Fold change vs veh, STRN3 / RFU, ADK / Fold change vs veh, ADK / RFU, RASSF2 / Fold change vs veh, RASSF2 / RFU, WIPF1 / Fold change vs veh, WIPF1 / RFU, LARP1B / Fold change vs veh, LARP1B / RFU, RASA1 / Fold change vs veh, RASA1 / RFU, RB1 / Fold change vs veh, RB1 / RFU, PPFIA1 / Fold change vs veh, PPFIA1 / RFU, MAT2A / Fold change vs veh, MAT2A / RFU, CCT5 / Fold change vs veh, CCT5 / RFU, WDR92 / Fold change vs veh, WDR92 / RFU, CUX1 / Fold change vs veh, CUX1 / RFU, TTC7A / Fold change vs veh, TTC7A / RFU, TMEM135 / Fold change vs veh, TMEM135 / RFU, DEPTOR / Fold change vs veh, DEPTOR / RFU, CPM / Fold change vs veh, CPM / RFU, DNAJB6 / Fold change vs veh, DNAJB6 / RFU, CACNA2D3 / Fold change vs veh, CACNA2D3 / RFU, DTX4 / Fold change vs veh, DTX4 / RFU, TFCP2 / Fold change vs veh, TFCP2 / RFU, GMCL1 /// GMCL1P1 / Fold change vs veh, GMCL1 /// GMCL1P1 / RFU, AEBP2 / Fold change vs veh, AEBP2 / RFU, SNHG1 /// SNORD22 /// SNORD25 /// SNORD26 /// SNORD27 /// SNORD28 /// SNORD29 /// SNORD31 / Fold change vs veh, SNHG1 /// SNORD22 /// SNORD25 /// SNORD26 /// SNORD27 /// SNORD28 /// SNORD29 /// SNORD31 / Fold change (Aza/veh), C12orf56 (ProbeSet 11735607_a_at) / Fold change (ACY-1035/veh), C12orf56 (ProbeSet 11735607_a_at) / Fold change (Aza/veh), FGFR1OP (ProbeSet 11751329_s_at) / Fold change (ACY-1035/veh), FGFR1OP (ProbeSet 11751329_s_at) / Fold change (Aza/veh), VPS36 (ProbeSet 11739960_a_at) / Fold change (ACY-1035/veh), VPS36 (ProbeSet 11739960_a_at) / RFU SYPL1 (11715823_x_at) / Fold change /veh SYPL1 (11715823_x_at) / RFU IGFBP7 (11715501_s_at) / Fold change /veh IGFBP7 (11715501_s_at) / RFU REEP3 (11722064_at) / Fold change /veh REEP3 (11722064_at) / RFU IGLL1 (11728026_x_at) / Fold change /veh IGLL1 (11728026_x_at): dose or concentration left out as unconfirmed
Conditions: MV-4-11 cells, 48 hours

For `Nc1ncn([C@@H]2O[C@H](CO)[C@@H](O)[C@H]2O)c(=O)n1` [azacitidine], the “Fold change /veh ECM1 (11717891_a_at)” value was 1.26.
